For eight cell lines, relative viability results are on record in the supplement of paper PMC10307832.

Assay in all cases: relative viability (nuclei count vs DMSO), 5 days (fraction); higher = more cells survive
Compound in test [1]: CN(C)C[C@@H]1CCn2cc(c3ccccc32)C2=C(C(=O)NC2=O)c2cn(c3ccccc23)CCO1 [Ruboxistaurin] + CS(=O)(=O)N1CCN(Cc2cc3nc(-c4cccc5[nH]ncc45)nc(N4CCOCC4)c3s2)CC1 [Pictilisib] (partner 1 µM)
The procedure, abridged:
(§1)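 Cells from lung cancer lines were seeded into 1536-well plates and, one day later, dosed by pin tool. Treatments were either a single drug or a fixed dose of an anchor drug with five library-drug doses (not always all listed) in √10 steps. After 5 days, nuclei were stained in a one-step fixation (final 0.05% Triton X-100, 1% formaldehyde, 1 ug/ml Hoechst) and counted on 4× images, and relative viability is the treated-to-vehicle nuclei ratio, as the median of duplicate plates.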

Compound in test [2]: CN(C)C[C@@H]1CCn2cc(c3ccccc32)C2=C(C(=O)NC2=O)c2cn(c3ccccc23)CCO1 [Ruboxistaurin] + Cc1nc(NC(=O)N2CCC[C@H]2C(N)=O)sc1-c1ccnc(C(C)(C)C(F)(F)F)c1 [Alpelisib] (partner 2 µM)
Put shortly:
as §1

Compound in test [3]: CN(C)C[C@@H]1CCn2cc(c3ccccc32)C2=C(C(=O)NC2=O)c2cn(c3ccccc23)CCO1 [Ruboxistaurin] + O=C(CCCCCCC(=O)Nc1ccccc1)NO [Vorinostat] (partner 1 µM)
The procedure, abridged:
as §1

Compound in test [4]: CN(C)C[C@@H]1CCn2cc(c3ccccc32)C2=C(C(=O)NC2=O)c2cn(c3ccccc23)CCO1 [Ruboxistaurin] + N=C(N)NC(=N)NCCc1ccccc1 [Phenformin] (partner 250 µM)
The procedure, abridged:
as §1

Compound in test [5]: CN(C)C[C@@H]1CCn2cc(c3ccccc32)C2=C(C(=O)NC2=O)c2cn(c3ccccc23)CCO1 [Ruboxistaurin] + Cc1cc(Nc2cc(N3CCN(C)CC3)nc(Sc3ccc(NC(=O)C4CC4)cc3)n2)n[nH]1 [Tozasertib] (partner 0.1 µM)
The procedure, abridged: as §1

As to HCC-366, the relative viability in test [1] (first compound 0.08 µM) turned out to be 0.237; in test [1] (first compound 0.8 µM), 0.116; in test [1] (first compound 2.53 µM) it was 0.151; in test [1] (first compound 8 µM), 0.137; in test [2] (first compound 0.08 µM), 0.536; in test [2] (first compound 0.8 µM), 0.326. Also, the relative viability came out at 0.373 in test [2] (first compound 2.53 µM); 0.226 in test [2] (first compound 8 µM); 0.407 in test [3] (first compound 0.08 µM); 0.434 in test [3] (first compound 0.8 µM); 0.374 in test [3] (first compound 2.53 µM); 0.307 in test [3] (first compound 8 µM). For the same cell line, the relative viability in test [4] (first compound 0.08 µM) was found to be 0.666; in test [4] (first compound 0.8 µM), 0.572; in test [4] (first compound 2.53 µM), 0.629; in test [4] (first compound 8 µM), 0.664; in test [5] (first compound 0.08 µM), 0.0941; in test [5] (first compound 0.8 µM), 0.0617. Moreover, the relative viability in test [5] (first compound 2.53 µM) came out at 0.084; in test [5] (first compound 8 µM), 0.0522.
For the cell line HCC-827, the relative viability in test [1] (first compound 0.08 µM) worked out at 0.993; in test [1] (first compound 0.8 µM), 0.866; in test [1] (first compound 2.53 µM) it was 1.08; in test [1] (first compound 8 µM), 1.27; in test [2] (first compound 0.08 µM), 1.13; in test [2] (first compound 0.8 µM), 1.02. Besides, the relative viability turned out to be 0.984 in test [2] (first compound 2.53 µM); 0.969 in test [2] (first compound 8 µM); 0.824 in test [3] (first compound 0.08 µM); 0.828 in test [3] (first compound 0.8 µM); 0.839 in test [3] (first compound 2.53 µM); 0.837 in test [3] (first compound 8 µM). For the same cell line, the relative viability came to 0.454 in test [4] (first compound 0.08 µM); 0.397 in test [4] (first compound 0.8 µM); 0.427 in test [4] (first compound 2.53 µM); 0.384 in test [4] (first compound 8 µM); 0.43 in test [5] (first compound 0.08 µM); 0.393 in test [5] (first compound 0.8 µM). Also, the relative viability in test [5] (first compound 2.53 µM) and in test [5] (first compound 8 µM) was 0.423 throughout.
Consider HOP-62, for which the relative viability was 0.732 in test [1] (first compound 0.08 µM); 0.755 in test [1] (first compound 0.8 µM); 0.535 in test [1] (first compound 2.53 µM); 0.546 in test [1] (first compound 8 µM); 0.932 in test [2] (first compound 0.08 µM); 1.08 in test [2] (first compound 0.8 µM). The relative viability in test [2] (first compound 2.53 µM) worked out at 0.992; in test [2] (first compound 8 µM) it was 1; in test [3] (first compound 0.08 µM), 0.669; in test [3] (first compound 0.8 µM), 0.648; in test [3] (first compound 2.53 µM), 0.686; in test [3] (first compound 8 µM) it was 0.679. The relative viability in test [4] (first compound 0.08 µM) was found to be 0.681; in test [4] (first compound 0.8 µM) it was 0.65; in test [4] (first compound 2.53 µM) it was 0.704; in test [4] (first compound 8 µM) it was 0.839; in test [5] (first compound 0.08 µM) it was 0.362; in test [5] (first compound 0.8 µM) it was 0.299. The relative viability worked out at 0.352 in test [5] (first compound 2.53 µM) and 0.424 in test [5] (first compound 8 µM).
Consider IA-LM, for which the relative viability in test [1] (first compound 0.08 µM) amounted to 0.389; in test [1] (first compound 0.8 µM), 0.271; in test [1] (first compound 2.53 µM), 0.381; in test [1] (first compound 8 µM) it was 0.323; in test [2] (first compound 0.08 µM), 0.971; in test [2] (first compound 0.8 µM), 0.663. Moreover, the relative viability in test [2] (first compound 2.53 µM) was found to be 0.747; in test [2] (first compound 8 µM) it was 0.612; in test [3] (first compound 0.08 µM), 1.13; in test [3] (first compound 0.8 µM), 0.937; in test [3] (first compound 2.53 µM), 0.656; in test [3] (first compound 8 µM), 0.939.
As to LC-2-ad, the relative viability in test [1] (first compound 0.08 µM) worked out at 0.481; in test [1] (first compound 0.8 µM) it was 0.347; in test [1] (first compound 2.53 µM), 0.495; in test [1] (first compound 8 µM), 0.286; in test [2] (first compound 0.08 µM), 0.779; in test [2] (first compound 0.8 µM), 0.785. Besides, the relative viability in test [2] (first compound 2.53 µM) was found to be 0.846; in test [2] (first compound 8 µM) it was 0.783; in test [3] (first compound 0.08 µM) it was 0.747; in test [3] (first compound 0.8 µM), 0.668; in test [3] (first compound 2.53 µM), 0.694; in test [3] (first compound 8 µM), 0.694. The relative viability stood at 0.621 in test [4] (first compound 0.08 µM); 0.574 in test [4] (first compound 0.8 µM); 0.615 in test [4] (first compound 2.53 µM); 0.572 in test [4] (first compound 8 µM); 0.55 in test [5] (first compound 0.08 µM); 0.45 in test [5] (first compound 0.8 µM). Moreover, the relative viability was found to be 0.476 in test [5] (first compound 2.53 µM) and 0.475 in test [5] (first compound 8 µM).
In the case of LCLC-97TM1, the relative viability in test [1] (first compound 0.08 µM) was found to be 0.221; in test [1] (first compound 2.53 µM), 0.161; in test [1] (first compound 8 µM), 0.127; in test [2] (first compound 0.08 µM), 0.245; in test [2] (first compound 2.53 µM), 0.223; in test [2] (first compound 8 µM), 0.204. For the same cell line, the relative viability in test [3] (first compound 0.08 µM) amounted to 0.683; in test [3] (first compound 0.8 µM) it was 0.691; in test [3] (first compound 2.53 µM), 0.74; in test [3] (first compound 8 µM) it was 0.613; in test [4] (first compound 0.08 µM), 0.466; in test [4] (first compound 0.8 µM) it was 0.383. The relative viability in test [4] (first compound 2.53 µM) turned out to be 0.475; in test [4] (first compound 8 µM), 0.466; in test [5] (first compound 0.08 µM), 0.194; in test [5] (first compound 0.8 µM), 0.168; in test [5] (first compound 2.53 µM), 0.242; in test [5] (first compound 8 µM), 0.159.
With LCLC-103H, the relative viability in test [1] (first compound 0.08 µM) was 0.632; in test [1] (first compound 0.8 µM) it was 0.611; in test [1] (first compound 2.53 µM), 0.511; in test [1] (first compound 8 µM), 0.533; in test [2] (first compound 0.08 µM), 0.99; in test [2] (first compound 0.8 µM), 0.802. In addition, the relative viability in test [2] (first compound 2.53 µM) was 0.826; in test [2] (first compound 8 µM), 0.862; in test [3] (first compound 0.08 µM), 0.823; in test [3] (first compound 0.8 µM), 0.743; in test [3] (first compound 2.53 µM), 0.807; in test [3] (first compound 8 µM) it was 0.75. In addition, the relative viability in test [4] (first compound 0.08 µM) is 0.336; in test [4] (first compound 0.8 µM), 0.285; in test [4] (first compound 2.53 µM) it was 0.336; in test [4] (first compound 8 µM) it was 0.321; in test [5] (first compound 0.08 µM) it was 0.52; in test [5] (first compound 0.8 µM), 0.326. Also, the relative viability in test [5] (first compound 2.53 µM) came to 0.519; in test [5] (first compound 8 µM), 0.472.
Consider LK-2, for which the relative viability in test [1] (first compound 0.08 µM) came out at 0.595; in test [1] (first compound 0.8 µM), 0.52; in test [1] (first compound 2.53 µM) it was 0.652; in test [1] (first compound 8 µM) it was 0.303; in test [2] (first compound 0.08 µM), 1.19; in test [2] (first compound 0.8 µM), 1.01. Further, the relative viability in test [2] (first compound 2.53 µM) came out at 1; in test [2] (first compound 8 µM), 0.577; in test [3] (first compound 0.08 µM), 0.362; in test [3] (first compound 0.8 µM) it was 0.323; in test [3] (first compound 2.53 µM), 0.33; in test [3] (first compound 8 µM), 0.222. For the same cell line, the relative viability in test [4] (first compound 0.08 µM) is 0.476; in test [4] (first compound 0.8 µM) it was 0.38; in test [4] (first compound 2.53 µM), 0.379; in test [4] (first compound 8 µM) it was 0.225; in test [5] (first compound 0.08 µM), 0.174; in test [5] (first compound 0.8 µM), 0.152. For the same cell line, the relative viability worked out at 0.179 in test [5] (first compound 2.53 µM) and 0.162 in test [5] (first compound 8 µM).
